The source of these data is PubChem BioAssay AID1259407 (Chemical Carcinogenesis Research Information System (CCRIS), 2018).

SMILES strings stand for the structures. Activity calls are given as the source filed them. The rule behind the calls is not given here.

This data set has as its system CCRIS mutagenicity, Ames/micronucleus/aberration tests. Put plainly: CCRIS mutagenicity studies.
Where [1] appears, read: Test System: AMES SALMONELLA TYPHIMURIUM, Strain/Indicator: TA98, Metabolic Activation: NONE, Method: PREINCUBATION
Setting [2] is: Test System: AMES SALMONELLA TYPHIMURIUM, Strain/Indicator: TA100, Metabolic Activation: NONE, Method: PREINCUBATION
Setting [3] is: Test System: AMES SALMONELLA TYPHIMURIUM, Strain/Indicator: TA100, Metabolic Activation: NONE, Method: STANDARD PLATE.
The mark [4] stands for this setting: Test System: AMES SALMONELLA TYPHIMURIUM, Strain/Indicator: TA100, Metabolic Activation: RAT, LIVER, S-9, AROCLOR 1254, Method: STANDARD PLATE.

For `C1CC[C@H]2O[C@H]2C1`, the mutagenic call is “active; positive” (Test System: AMES SALMONELLA TYPHIMURIUM, Strain/Indicator: TA98, Metabolic Activation: HAMSTER, LIVER, S-9, AROCLOR 1254, Method: STANDARD PLATE); “inactive; negative” under setting [1]; “inactive; negative” (Test System: AMES SALMONELLA TYPHIMURIUM, Strain/Indicator: TA98, Metabolic Activation: RAT LIVER S-9, PHENOBARBITAL AND BETA-NAPHTHOFLAVONE, Method: PREINCUBATION); “active; positive” (Test System: AMES SALMONELLA TYPHIMURIUM, Strain/Indicator: TA98, Metabolic Activation: RAT, LIVER, S-9, AROCLOR 1254, Method: STANDARD PLATE); “active; positive” (Test System: AMES SALMONELLA TYPHIMURIUM, Strain/Indicator: TA100, Metabolic Activation: HAMSTER, LIVER, S-9, AROCLOR 1254, Method: STANDARD PLATE); “active; positive” under setting [2]. For the same compound, the mutagenic call under setting [3] is “active; positive”; the mutagenic call (Test System: AMES SALMONELLA TYPHIMURIUM, Strain/Indicator: TA100, Metabolic Activation: RAT LIVER S-9, PHENOBARBITAL AND BETA-NAPHTHOFLAVONE, Method: PREINCUBATION) is “active; positive”; the mutagenic call under setting [4] was “active; positive”; the mutagenic call (Test System: AMES SALMONELLA TYPHIMURIUM, Strain/Indicator: TA1535, Metabolic Activation: NONE, Method: PREINCUBATION) is “active; positive”; the mutagenic call (Test System: AMES SALMONELLA TYPHIMURIUM, Strain/Indicator: TA1535, Metabolic Activation: NONE, Method: STANDARD PLATE) is “active; positive”; the mutagenic call (Test System: AMES SALMONELLA TYPHIMURIUM, Strain/Indicator: TA1535, Metabolic Activation: RAT LIVER S-9, PHENOBARBITAL AND BETA-NAPHTHOFLAVONE, Method: PREINCUBATION) is “active; positive”. In addition, the mutagenic call is, setting by setting: (Test System: AMES SALMONELLA TYPHIMURIUM, Strain/Indicator: TA1537, Metabolic Activation: NONE, Method: PREINCUBATION) “inactive; negative”; (Test System: AMES SALMONELLA TYPHIMURIUM, Strain/Indicator: TA1537, Metabolic Activation: RAT LIVER S-9, PHENOBARBITAL AND BETA-NAPHTHOFLAVONE, Method: PREINCUBATION) “inactive; negative”; (Test System: AMES SALMONELLA TYPHIMURIUM, Strain/Indicator: TA1538, Metabolic Activation: NONE, Method: PREINCUBATION) “inactive; negative”; (Test System: AMES SALMONELLA TYPHIMURIUM, Strain/Indicator: TA1538, Metabolic Activation: RAT LIVER S-9, PHENOBARBITAL AND BETA-NAPHTHOFLAVONE, Method: PREINCUBATION) “inactive; negative”; (Test System: E. COLI, Strain/Indicator: WP2UVRA, Metabolic Activation: NONE, Method: PREINCUBATION) “inactive; negative”; (Test System: E. COLI, Strain/Indicator: WP2UVRA, Metabolic Activation: RAT LIVER S-9, PHENOBARBITAL AND BETA-NAPHTHOFLAVONE, Method: PREINCUBATION) “active; positive”. The mutagenic call runs as follows: (Test System: MOUSE LYMPHOMA, Strain/Indicator: L5178Y (TK+/TK-), Metabolic Activation: NONE, Method: SUSPENSION/PLATE) “active; positive. reevaluation of results: positive”; (Test System: Mouse lymphoma, Strain/Indicator: L5178Y (tk+/tk-), Metabolic Activation: Rat, Liver, S-9, Aroclor 1254, Method: Suspension/plate) “active; positive”.

Regarding `Oc1ccc2ccc3c4ccc5ccccc5c4c4c(c3c2c1O)O4`, the mutagenic call was “active; positive” (Test System: AMES SALMONELLA TYPHIMURIUM, Strain/Indicator: TA97, Metabolic Activation: NONE, Method: PREINCUBATION); “active; positive” under setting [1]; “active; positive” under setting [2]; “active; positive” (Test System: AMES SALMONELLA TYPHIMURIUM, Strain/Indicator: TA104, Metabolic Activation: NONE, Method: PREINCUBATION); “active; positive” (Test System: CHINESE HAMSTER V-79, Strain/Indicator: V-79/6-THIOGUANINE, Metabolic Activation: NONE).

For `O=C1OC(=C(Cl)Cl)C=C1Cl`, the mutagenic call under setting [3] was “active; positive”.

In the case of `N[C@@H](Cc1cc(I)c(Oc2cc(I)c(O)c(I)c2)c(I)c1)C(=O)O`, the mutagenic call (End Point: In vitro micronucleus, Test System: Human peripheral blood lymphocytes, Metabolic Activation: None) was “inactive; negative”.

As for `OC1C=Cc2c(ccc3ccccc23)C1O` (stereo not given), under setting [4], the mutagenic call is “active; positive”.

`O=[N+]([O-])c1ccc2nc3ccc([N+](=O)[O-])cc3nc2c1`: the mutagenic call is “active; positive” (Test System: AMES SALMONELLA TYPHIMURIUM, Strain/Indicator: TA98(NR), Metabolic Activation: NONE, Method: PREINCUBATION) and “active; positive” under setting [1].

In the case of `Nc1cc2c(cc1[N+](=O)[O-])[nH]c1ccccc12`, the mutagenic call was “active; positive” (Test System: AMES SALMONELLA TYPHIMURIUM, Strain/Indicator: TA98, Metabolic Activation: NONE, Method: STANDARD PLATE); “active; positive” (Test System: AMES SALMONELLA TYPHIMURIUM, Strain/Indicator: TA98, Metabolic Activation: RAT, LIVER, S-9, PHENOBARBITAL, Method: STANDARD PLATE); “active; positive” under setting [3]; “active; positive” (Test System: AMES SALMONELLA TYPHIMURIUM, Strain/Indicator: TA100, Metabolic Activation: RAT, LIVER, S-9, PHENOBARBITAL, Method: STANDARD PLATE); “active; positive” (Test System: AMES SALMONELLA TYPHIMURIUM, Strain/Indicator: TA1537, Metabolic Activation: NONE, Method: STANDARD PLATE); “active; positive” (Test System: AMES SALMONELLA TYPHIMURIUM, Strain/Indicator: TA1537, Metabolic Activation: RAT, LIVER, S-9, PHENOBARBITAL, Method: STANDARD PLATE). Moreover, the mutagenic call by setting is: (Test System: AMES SALMONELLA TYPHIMURIUM, Strain/Indicator: TA1538, Metabolic Activation: NONE, Method: STANDARD PLATE) “active; positive”; (Test System: AMES SALMONELLA TYPHIMURIUM, Strain/Indicator: TA1538, Metabolic Activation: RAT, LIVER, S-9, PHENOBARBITAL, Method: STANDARD PLATE) “active; positive”; (Test System: AMES SALMONELLA TYPHIMURIUM, Strain/Indicator: TA1977, Metabolic Activation: NONE, Method: STANDARD PLATE) “active; positive”; (Test System: AMES SALMONELLA TYPHIMURIUM, Strain/Indicator: TA1977, Metabolic Activation: RAT, LIVER, S-9, PHENOBARBITAL, Method: STANDARD PLATE) “active; positive”.
